Data taken from patent publication US9079899B2, “Anti-staphylococcal celecoxib derivatives” (THE OHIO STATE UNIVERSITY, priority 2010, dated 2015).
Converted amounts (≈) assume the structure as drawn. Where two headings read alike, the source gives them in different places.

Key:
MRSA (SCCmec VT) = experiment: MIC, broth microdilution; type: cell-based, methicillin-resistant Staphylococcus aureus
S. aureus (ATCC 29213) = experiment: MIC, broth microdilution; type: cell-based
[1] = test system: S. epidermidis (ATCC 35984); experiment: MIC, broth microdilution; type: cell-based; settings: for MIC S. epidermidis (ATCC 35984): CAMHB, 24 h, 37° C.; for MIC: S. epidermidis (ATCC 35984)
[2] = test system: HT-29 human colon adenocarcinoma cells; experiment: Antiproliferative assay (MTT); type: cell-based; settings: 24-h exposure, 10% FBS-supplemented RPMI 1640, MTT; for IC50: Homo sapiens, HT-29
Experimental: As celecoxib has been reported to be cytotoxic to cancer cells, the growth inhibitory activities of celecoxib and selected derivatives were assessed in. HT-29 human colon adenocarcinoma cells after 24-h exposure in 10% FBS-supplemented RPMI 1640 medium.
Antiproliferative assay. The cytotoxicity of individual test agents in HT-29 human colon adenocarcinoma cells was evaluated by using the 3-(4,5-dimethylthiazol-2-yl)-2,5-diphenyltetrazolium (MTT) assay. Briefly, HT-29 cells were seeded into 96-well plates at 1×10^4 cells/well (with a minimum of 6 wells per test condition) in RPMI 1640 medium supplemented with 10% FBS and 10 μg/ml of gentamicin. After overnight incubation at 37° C. under 5% CO2, the medium from each well was removed and replenished with fresh aliquots of the same medium containing various concentrations of test agents dissolved in DMSO (final concentration, 0.1%). Control cells were treated with DMSO alone at a concentration equal to that in drug-treated cells. After 24 h of drug exposure, the medium was removed and replaced by 100 μl of 0.5 mg/ml MTT in 10% FBS-containing medium, and the cells were incubated in the CO2 incubator at 37° C. for 2 h. Subsequently, medium was removed from each well, and the reduced MTT dye was dissolved with 100 μl of DMSO per well. Absorbance at 570 nm was measured with a plate reader. The 50% inhibitory concentration (IC50) of each drug was determined from dose-response curves by using CalcuSyn software (Biosoft, Cambridge, United Kingdom).

MRSA (ATCC 49476) = experiment: MIC, broth microdilution; type: cell-based, methicillin-resistant Staphylococcus aureus; settings: Staphylococcus aureus
MRSA (ATCC 33592) = experiment: MIC, broth microdilution; type: cell-based, methicillin-resistant Staphylococcus aureus
S. aureus (ATCC 12598) = experiment: MIC, broth microdilution; type: cell-based; settings: Staphylococcus aureus, ATCC12598
[3] = test system: S. epidermidis (ATCC 12228); experiment: MIC, broth microdilution; type: cell-based; settings: Staphylococcus epidermidis, ATCC12228
[4] = Table XIII, S. aureus (SSCmecVT)
[5] = Staphylococcus aureus, ATCC29213, 24 h, CAMHB, 24 h, 37° C., read-out: MIC S. aureus (ATCC 29213)
[6] = Staphylococcus aureus, read-out: MIC MRSA (ATCC 33592)
[7] = Staphylococcus aureus, MRSA, read-out: MIC MRSA (SCCmec VT)

| SMILES | MIC S. aureus (ATCC 29213) (S. aureus (ATCC 29213); CAMHB, 24 h, 37° C.) | MIC S. epidermidis (ATCC 35984) [1] | IC50 HT-29 cells [2] | also measured |
| --- | --- | --- | --- | --- |
| NC[C@H]1O[C@H](O[C@H]2[C@H](O)[C@@H](O[C@H]3O[C@H](CO)[C@@H](O)[C@H](N)[C@H]3O)[C@H](N)C[C@@H]2N)[C@H](O)[C@@H](O)[C@@H]1O [Kanamycia] | – | – | – | MIC (MRSA (SCCmec VT); [4]): > 64 µg/mL |
| NCC(=O)Nc1ccc(-n2nc(C(F)(F)F)cc2-c2ccc3c(c2)Nc2ccccc2S3)cc1 [Compound 24] | 4 µg/mL (≈ 8.31 µM) | 4 µg/mL (≈ 8.31 µM) | 6.2 µg/mL (≈ 12.9 µM) | – |
| NS(=O)(=O)Nc1ccc(-n2nc(C(F)(F)F)cc2-c2ccc(-c3ccccc3)cc2)cc1 [Compound 42, N-[4-(5-Biphenyl-4-yl-3-trifluoromethyl-pyrazol-1-yl)-phenyl]-aminosulfonamide] | – | – | – | MIC (S. aureus (ATCC 29213); [5]): 1 µg/mL (≈ 2.18 µM); MIC (MRSA (ATCC 49476)): 1 µg/mL (≈ 2.18 µM); MIC (MRSA (ATCC 33592); [6]): 1 µg/mL (≈ 2.18 µM); MIC (S. aureus (ATCC 12598)): 1 µg/mL (≈ 2.18 µM); IC50 [2]: 16 µg/mL (≈ 34.9 µM); MIC (MRSA (SCCmec VT); [7]): 1 µg/mL (≈ 2.18 µM) |
| NCCCC[C@@H](N)C(=O)Nc1ccc(-n2nc(C(F)(F)F)cc2-c2ccc3c(c2)Nc2ccccc2S3)cc1 [Compound 31] | 4 µg/mL (≈ 7.24 µM) | 4 µg/mL (≈ 7.24 µM) | 17.5 µg/mL (≈ 31.7 µM) | – |
| NCCCC[C@@H](N)C(=O)Nc1ccc(-n2nc(C(F)(F)F)cc2-c2ccc3oc4ccccc4c3c2)cc1 [Compound 32] | did not exhibit appreciable activity at 64 μg/ml or improved activity relative to celecoxib | did not exhibit appreciable activity at 64 μg/ml or improved activity relative to celecoxib | – | – |
| NCCC(=O)Nc1ccc(-n2nc(C(F)(F)F)cc2-c2ccc3c(ccc4ccccc43)c2)cc1 [Compound 27] | 4 µg/mL (≈ 8.43 µM) | 4 µg/mL (≈ 8.43 µM) | 6 µg/mL (≈ 12.6 µM) | – |
| NCCC(=O)Nc1ccc(-n2nc(C(F)(F)F)cc2-c2ccc3oc4ccccc4c3c2)cc1 [Compound 29] | 4 µg/mL (≈ 8.61 µM) | 4 µg/mL (≈ 8.61 µM) | 7.2 µg/mL (≈ 15.5 µM) | – |
| NCCC(=O)Nc1ccc(-n2nc(C(F)(F)F)cc2-c2ccc(-c3ccc(C(F)(F)F)cc3)cc2)cc1 [Compound 26] | 4 µg/mL (≈ 7.72 µM) | 4 µg/mL (≈ 7.72 µM) | 4.2 µg/mL (≈ 8.1 µM) | – |
| NCC(=O)Nc1ccc(-n2nc(C(F)(F)F)cc2-c2ccc(-c3ccc(C(F)(F)F)cc3)cc2)cc1 [Compound 22] | did not exhibit appreciable activity at 64 μg/ml or improved activity relative to celecoxib | did not exhibit appreciable activity at 64 μg/ml or improved activity relative to celecoxib | – | – |
| [H]/N=C(/N)N[C@H]1[C@H](O)[C@@H](O)[C@H](O[C@@H]2O[C@@H](C)[C@](O)(C=O)[C@H]2O[C@@H]2O[C@@H](CO)[C@H](O)[C@@H](O)[C@@H]2NC)[C@@H](N/C(N)=N\[H])[C@@H]1O [Streptomycin, streptomycin, reference compound] | – | – | – | MIC (MRSA (SCCmec VT); [4]): > 64 µg/mL |
| CCCCc1ccc(-c2cc(C(F)(F)F)nn2-c2ccc(C(N)=O)cc2)cc1 [Compound 10] | did not exhibit appreciable activity at 64 μg/ml or improved activity relative to celecoxib | did not exhibit appreciable activity at 64 μg/ml or improved activity relative to celecoxib | – | – |
| NCCC(=O)Nc1ccc(-n2nc(C(F)(F)F)cc2-c2ccc3c(c2)Nc2ccccc2S3)cc1 [Compound 28] | 4 µg/mL (≈ 8.07 µM) | 4 µg/mL (≈ 8.07 µM) | 7.5 µg/mL (≈ 15.1 µM) | – |
| CC1(C)S[C@@H]2[C@H](NC(=O)[C@H](N)c3ccccc3)C(=O)N2[C@H]1C(=O)O [Ampicillin] | – | – | – | MIC (MRSA (SCCmec VT); [4]): > 64 µg/mL |
| NCCCC[C@H](N)C(=O)Nc1ccc(-n2nc(C(F)(F)F)cc2-c2ccc3c(ccc4ccccc43)c2)cc1 [Compound 34] | 2 µg/mL (≈ 3.76 µM) | 4 µg/mL (≈ 7.52 µM) | 19.5 µg/mL (≈ 36.7 µM) | – |
| O=C(N[C@H](CO)[C@H](O)c1ccc([N+](=O)[O-])cc1)C(Cl)Cl [Chloramphenicol, chloramphenicol, reference compound] | – | – | – | MIC (MRSA (SCCmec VT); [4]): > 64 µg/mL |
| NCC(=O)Nc1ccc(-n2nc(C(F)(F)F)cc2-c2ccc3c(ccc4ccccc43)c2)cc1 [Compound 23] | 4 µg/mL (≈ 8.69 µM) | 4 µg/mL (≈ 8.69 µM) | 3.6 µg/mL (≈ 7.82 µM) | – |
| NCC(=O)Nc1ccc(-n2nc(C(F)(F)F)cc2-c2ccc3oc4ccccc4c3c2)cc1 [Compound 25] | 4 µg/mL (≈ 8.88 µM) | 4 µg/mL (≈ 8.88 µM) | 6.5 µg/mL (≈ 14.4 µM) | – |
| CN(C)[C@@H]1C(O)=C(C(N)=O)C(=O)[C@@]2(O)C(O)=C3C(=O)c4c(O)cccc4[C@@](C)(O)[C@H]3C[C@@H]12 [Tetracycline, tetracycline, reference compound] | – | – | – | MIC (MRSA (SCCmec VT); [4]): 16 µg/mL (≈ 36 µM) |
| NS(=O)(=O)Nc1ccc(-n2nc(C(F)(F)F)cc2-c2ccc(-c3ccc(Br)cc3)cc2)cc1 [Compound 44, N-{4-[5-(4′-Bromobiphenyl-4-yl)-3-trifluoromethyl-pyrazol-1-yl]-phenyl}-aminosulfonamide] | – | – | – | MIC [3]: 1 µg/mL (≈ 1.86 µM); MIC (S. aureus (ATCC 29213); [5]): 1 µg/mL (≈ 1.86 µM); MIC (MRSA (ATCC 49476)): 1 µg/mL (≈ 1.86 µM); MIC (MRSA (ATCC 33592); [6]): 1 µg/mL (≈ 1.86 µM); MIC (S. aureus (ATCC 12598)): 1 µg/mL (≈ 1.86 µM); IC50 [2]: 10 µg/mL (≈ 18.6 µM); MIC (MRSA (SCCmec VT); [7]): 1 µg/mL (≈ 1.86 µM) |
| FC(F)(F)c1cc(-c2ccc3c(ccc4ccccc43)c2)n(-c2ccccc2)n1 [Compound 21] | did not exhibit appreciable activity at 64 μg/ml or improved activity relative to celecoxib | did not exhibit appreciable activity at 64 μg/ml or improved activity relative to celecoxib | – | – |
| NCCCC[C@H](N)C(=O)Nc1ccc(-n2nc(C(F)(F)F)cc2-c2ccc(-c3ccc(C(F)(F)F)cc3)cc2)cc1 [Compound 33] | 4 µg/mL (≈ 6.95 µM) | 4 µg/mL (≈ 6.95 µM) | 3.3 µg/mL (≈ 5.73 µM) | – |
| NCCCC[C@H](N)C(=O)Nc1ccc(-n2nc(C(F)(F)F)cc2-c2ccc3c(c2)Nc2ccccc2S3)cc1 [Compound 35] | 4 µg/mL (≈ 7.24 µM) | 4 µg/mL (≈ 7.24 µM) | 5.2 µg/mL (≈ 9.41 µM) | – |
| NCCCC[C@@H](N)C(=O)Nc1ccc(-n2nc(C(F)(F)F)cc2-c2ccc3c(ccc4ccccc43)c2)cc1 [Compound 30] | 4 µg/mL (≈ 7.52 µM) | 4 µg/mL (≈ 7.52 µM) | 3.2 µg/mL (≈ 6.02 µM) | – |
| NS(=O)(=O)Nc1ccc(-n2nc(C(F)(F)F)cc2-c2ccc3ccccc3c2)cc1 [Compound 45, N-[4-(5-Naphthalen-2-yl-3-trifluoromethyl-pyrazol-1-yl)-phenyl]-aminosulfonamide] | – | – | – | MIC (S. aureus (ATCC 29213); [5]): 1 µg/mL (≈ 2.31 µM); IC50 [2]: 19 µg/mL (≈ 43.9 µM) |
| NS(=O)(=O)c1ccc(-n2nc(C(F)(F)F)cc2-c2ccc(-c3ccc(Cl)cc3)cc2)cc1 [Compound 11] | 4 µg/mL (≈ 8.37 µM) | 8 µg/mL (≈ 16.7 µM) | 12.5 µg/mL (≈ 26.2 µM) | – |
| CS(=O)(=O)c1ccc(C2=C(c3ccccc3)C(=O)OC2)cc1 [Rofecoxib, rofecoxib, reference compound] | – | – | – | MIC (S. aureus (ATCC 29213); Staphylococcus aureus, ATCC29213, Table IX, S. aureus (ATCC 29213), read-out: MIC): > 64 µg/mL; MIC (S. aureus (ATCC 29213); Table IX, S. aureus (ATCC 29213)): NE (no effect of the test agent at 64 μg/ml); MIC ([1]; Staphylococcus epidermidis, ATCC35984, Table IX, read-out: MIC): > 64 µg/mL; MIC ([1]; Table IX): NE (no effect of the test agent at 64 μg/ml); MIC (MRSA (ATCC 33592); Staphylococcus aureus, Table IX, MRSA (ATCC 33592), read-out: MIC): > 64 µg/mL; MIC (MRSA (ATCC 33592); Table IX, MRSA (ATCC 33592)): NE (no effect of the test agent at 64 μg/ml); MIC (MRSA (SCCmec VT); Staphylococcus aureus, MRSA, Table IX, MRSA (SCCmec VT), read-out: MIC): > 64 µg/mL; MIC (MRSA (SCCmec VT); Table IX, MRSA (SCCmec VT)): NE (no effect of the test agent at 64 μg/ml) |
| Cc1ccc(-c2ccc(-c3cc(C(F)(F)F)nn3-c3ccc(NS(N)(=O)=O)cc3)cc2)cc1 [Compound 43, N-{4-[5-(4′-Methylbiphenyl-4-yl)-3-trifluoromethyl-pyrazol-1-yl]-phenyl}-aminosulfonamide] | – | – | – | MIC [3]: 1 µg/mL (≈ 2.12 µM); MIC (S. aureus (ATCC 29213); [5]): 1 µg/mL (≈ 2.12 µM); MIC (MRSA (ATCC 49476)): 1 µg/mL (≈ 2.12 µM); MIC (MRSA (ATCC 33592); [6]): 1 µg/mL (≈ 2.12 µM); MIC (S. aureus (ATCC 12598)): 1 µg/mL (≈ 2.12 µM); IC50 [2]: 9 µg/mL (≈ 19 µM); MIC (MRSA (SCCmec VT); [7]): 1 µg/mL (≈ 2.12 µM) |
